Results from patent US12590099B2, “Inhibitors of histone deacetylase useful for the treatment or prevention of HIV infection” (Merck Sharp & Dohme LLC, priority 2018, dated 2026).
Read-outs that look alike come from different tables or passages of the source.

Columns and labels:
KARN cells (Jurkat 2C4) = test: cells; type: cell-based; settings: Homo sapiens, Jurkat
Method in brief: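 Jurkat 2C4 (KARN) cells dosed with test compounds up to 40 μM final, 0.4% DMSO, overnight at 5% CO2; luciferase read by Steady-Glo luminescence after 10 min at room temperature. DMSO set as 0% and 2 μM SAHA as 100% induction; 4-parameter fit of percent activation.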

Recombinant human HDAC8 = target: T1, Recombinant human HDAC8 (Homo sapiens, UniProt Q9BY41); test: Human HDAC enzyme inhibitor Fluor-de-Lys assay, HDAC8; type: biochemical
T1 construct: purchased Enzo Life Sciences BML-SE145-0100
T1 sequence (Q9BY41 1-377): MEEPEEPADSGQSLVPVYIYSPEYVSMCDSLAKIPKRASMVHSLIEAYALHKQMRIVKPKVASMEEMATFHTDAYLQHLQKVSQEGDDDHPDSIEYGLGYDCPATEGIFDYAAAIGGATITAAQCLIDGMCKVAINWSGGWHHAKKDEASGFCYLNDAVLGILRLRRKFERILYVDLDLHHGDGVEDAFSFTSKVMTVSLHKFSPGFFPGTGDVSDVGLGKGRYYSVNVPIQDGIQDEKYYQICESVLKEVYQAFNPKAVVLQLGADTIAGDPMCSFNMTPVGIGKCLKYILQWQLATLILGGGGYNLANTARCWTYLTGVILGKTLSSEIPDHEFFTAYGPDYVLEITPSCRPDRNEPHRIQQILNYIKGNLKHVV

Recombinant human HDAC1 = target: T2, Recombinant human HDAC1 (Homo sapiens, UniProt Q13547); test: Human HDAC enzyme inhibitor Fluor-de-Lys assay, HDAC1; type: biochemical
T2 construct: FLAG (C); made in house
T2 sequence (Q13547 whole entry): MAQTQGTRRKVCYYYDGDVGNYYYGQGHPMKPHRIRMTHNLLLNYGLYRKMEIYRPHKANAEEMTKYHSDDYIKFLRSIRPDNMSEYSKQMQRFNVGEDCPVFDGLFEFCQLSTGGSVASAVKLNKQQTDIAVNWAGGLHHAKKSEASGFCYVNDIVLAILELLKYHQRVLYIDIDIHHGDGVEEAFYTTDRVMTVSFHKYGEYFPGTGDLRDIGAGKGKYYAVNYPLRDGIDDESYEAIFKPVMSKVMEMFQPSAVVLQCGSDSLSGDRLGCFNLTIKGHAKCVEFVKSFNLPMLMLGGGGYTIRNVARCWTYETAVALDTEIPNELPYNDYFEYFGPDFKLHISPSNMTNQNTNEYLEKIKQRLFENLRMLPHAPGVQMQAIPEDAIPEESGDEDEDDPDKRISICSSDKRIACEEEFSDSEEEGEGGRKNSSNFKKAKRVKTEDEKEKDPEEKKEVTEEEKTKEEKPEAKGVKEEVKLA
Method in brief: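 Fluor-de-Lys format at room temperature (23° C.): compounds titrated 10-point, 1:3, preincubated with HDAC before substrate addition; HDAC1 run at 0.3 nM enzyme with 20 μM BML-KI104. Developer with excess HDAC inhibitor ends the reaction, and trypsin-liberated AMC fluorescence is the read-out.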

[1] = target: T3, Recombinant human HDAC3/SMRT heterodimer (Homo sapiens, UniProt O15379); test: Human HDAC enzyme inhibitor Fluor-de-Lys assay, HDAC3/SMRT; type: biochemical
T3 construct: FLAG (C); made in house
T3 sequence (O15379 whole entry): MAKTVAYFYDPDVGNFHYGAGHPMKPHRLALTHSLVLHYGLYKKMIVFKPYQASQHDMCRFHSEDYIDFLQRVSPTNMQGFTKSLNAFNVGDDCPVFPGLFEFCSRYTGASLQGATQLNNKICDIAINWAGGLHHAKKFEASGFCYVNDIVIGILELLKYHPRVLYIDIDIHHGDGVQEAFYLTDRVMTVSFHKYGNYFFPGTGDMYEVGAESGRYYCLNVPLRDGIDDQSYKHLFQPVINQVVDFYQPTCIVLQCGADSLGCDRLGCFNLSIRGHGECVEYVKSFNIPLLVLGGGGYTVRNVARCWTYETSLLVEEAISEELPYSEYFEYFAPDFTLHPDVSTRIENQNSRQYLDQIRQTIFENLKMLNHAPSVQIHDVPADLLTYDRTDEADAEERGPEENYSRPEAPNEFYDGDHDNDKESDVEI
T3 sequence (Q9Y618 1-899 partner limits assumed): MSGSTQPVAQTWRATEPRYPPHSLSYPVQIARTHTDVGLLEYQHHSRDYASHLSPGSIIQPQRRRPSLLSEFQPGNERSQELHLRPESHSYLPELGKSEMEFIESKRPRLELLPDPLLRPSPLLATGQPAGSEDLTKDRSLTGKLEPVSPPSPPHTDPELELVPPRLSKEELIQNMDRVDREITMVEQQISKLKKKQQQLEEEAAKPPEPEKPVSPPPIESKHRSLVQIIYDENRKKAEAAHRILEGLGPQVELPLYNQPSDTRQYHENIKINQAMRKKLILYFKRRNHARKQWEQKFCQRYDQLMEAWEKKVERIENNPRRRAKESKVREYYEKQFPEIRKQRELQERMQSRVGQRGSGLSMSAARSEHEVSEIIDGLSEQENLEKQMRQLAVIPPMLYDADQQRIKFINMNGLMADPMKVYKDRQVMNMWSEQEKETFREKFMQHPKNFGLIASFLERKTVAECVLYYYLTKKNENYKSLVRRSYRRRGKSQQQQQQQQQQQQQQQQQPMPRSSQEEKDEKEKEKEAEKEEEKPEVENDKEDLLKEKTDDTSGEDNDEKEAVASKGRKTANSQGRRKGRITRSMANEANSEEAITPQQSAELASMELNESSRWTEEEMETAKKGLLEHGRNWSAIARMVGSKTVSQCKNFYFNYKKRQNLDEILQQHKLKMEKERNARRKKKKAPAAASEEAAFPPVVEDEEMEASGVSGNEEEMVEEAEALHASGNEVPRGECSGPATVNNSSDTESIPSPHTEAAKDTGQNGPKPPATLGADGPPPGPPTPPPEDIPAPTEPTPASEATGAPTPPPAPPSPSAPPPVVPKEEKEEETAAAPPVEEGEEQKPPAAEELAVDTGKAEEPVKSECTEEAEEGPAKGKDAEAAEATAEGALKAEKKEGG

[2] = read-out: Karn EC50 (nM) 0.1% NHS, 0.1% normal human serum, luciferase induction, 100% = 2 μM SAHA
[3] = read-out: Karn EC50 (nM) 5% NHS, 5% normal human serum, luciferase induction, 100% = 2 μM SAHA
[4] = recombinant human HDAC8, Fluor-de-Lys assay
[5] = recombinant human HDAC1, Fluor-de-Lys assay
[6] = recombinant human HDAC3/SMRT, Fluor-de-Lys assay
[7] = read-out: Karn EC50 (nM) 0.1% NHS, 0.1% normal human serum
[8] = read-out: Karn EC50 (nM) 5% NHS, 5% normal human serum

Row | Structure (SMILES) | EC50 (KARN cells (Jurkat 2C4); [2]) [nM] | EC50 (KARN cells (Jurkat 2C4); [3]) [nM] | IC50 (Recombinant human HDAC8; [4]) [µM] | IC50 (Recombinant human HDAC1; [5]) [µM] | IC50 [1, 6] [µM] | EC50 (KARN cells (Jurkat 2C4); [7]) [nM] | EC50 (KARN cells (Jurkat 2C4); [8]) [nM] | IC50 (Recombinant human HDAC8) [µM] | IC50 (Recombinant human HDAC1) [µM] | IC50 [1] [µM]
1 | CCC(=O)CCCCC[C@H](NC(=O)[C@@H]1CC12CN(C)C2)c1ncc(-c2cc3ccc(C)nc3cc2OC)o1 (single isomer, unassigned) [Compound 231] | 589 | 535 | > 0.9 | 0.00126 | – | – | – | – | – | –
2 | CCC(=O)CCCCC[C@H](NC(=O)C1CC12CCN(CC)CC2)c1nc(-c2ccc(F)cc2)[nH]c1-c1cnc(OC)nc1 (some centres unmarked) [Compound 247] | 9640 | 10800 | 21.8 | 0.039 | 0.0359 | – | – | – | – | –
3 | CCC(=O)CCCCC[C@H](NC(=O)[C@H]1CC12CCN(C)CC2)c1ncc(-c2ccc3cc(C#N)ccc3c2)[nH]1 [Compound 90] | – | – | – | – | – | 52 | 33 | 2.64 | 0.00028 | 0.00038
4 | CCC(=O)CCCCC[C@H](N)c1ncc(-c2cc3ccc(=O)n(C)c3cc2OC)o1 [Compound 224] | 5000 | 6970 | > 0.9 | 0.0387 | 0.0921 | – | – | – | – | –
5 | CCC(=O)CCCCC[C@H](NC(=O)CC1CC2(C1)CN(C)C2)c1nnc(-c2cc3ccccc3nc2OC)o1 [Compound 308] | 2690 | 3700 | > 45 | 0.0273 | 0.0274 | – | – | – | – | –
6 | CCC(=O)CCCCCC(NC(=O)C1CCC2(CC1)OC(=O)c1ccncc12)c1nnc(-c2cc3ccccc3nc2OC)o1 (centres unmarked) [Compound 363] | 2080 | 4810 | 25.5 | 0.0855 | 0.0335 | – | – | – | – | –
7 | CCC(=O)CCCCC[C@H](NC(=O)[C@H]1CC12CCN(C)CC2)c1ncc(-c2ccc(-c3cccnc3)nc2)[nH]1 [Compound 262] | 773 | 851 | 12.6 | 0.00442 | – | – | – | – | – | –
8 | CCC(=O)CCCCC[C@H](NC(=O)C1=NOC2(CCN(CC3CC3)CC2)C1)c1ncc(-c2cc3ccc(=O)n(C)c3cc2OC)o1 [Compound 236] | 442 | 476 | > 0.9 | 0.00036 | 0.00107 | – | – | – | – | –
9 | CCOc1ncc(-c2cnc([C@H](CCCCCC(=O)CC)NC(=O)[C@H]3CC34CCN(C)CC4)[nH]2)cn1 [Compound 266] | 9900 | 13800 | 19.3 | 0.155 | – | – | – | – | – | –
10 | CCC(=O)CCCCC[C@H](NC(=O)C1CC12CC1CCC(C2)N1C)c1ncc(-c2ccc3ncccc3c2)[nH]1 (single isomer, unassigned) [Compound 242] | 1690 | 2770 | 5.1 | 0.00394 | < 0.0015 | – | – | – | – | –
11 | CCC(=O)CCCCC[C@H](NC(=O)[C@H]1CC12CCN(C)CC2)c1nc(Cl)c(-c2cc3ccccc3nc2O)[nH]1 [Compound 81, (1S)—N-{(1S)-1-[4-chloro-5-(2-hydroxyquinolin-3-yl)-1H-imidazol-2-yl]-7-oxononyl}-6-methyl-6-azaspiro[2.5]octane-1-carboxamide] | – | – | – | – | – | 6430 | 10700 | 5.35 | 0.0882 | 0.069
12 | CCC(=O)CCCCC[C@H](NC(=O)[C@H]1CC12CCN(CC)CC2)c1ncc(-c2cnc3cc(C(F)(F)F)ccc3c2)[nH]1 [Compound 341] | 44 | 70 | 11.9 | 0.00042 | 0.00043 | – | – | – | – | –
13 | CCC(=O)CCCCC[C@@H](NC(=O)C1CCC2(CC1)CN(C)C2)c1ncc(-c2ccccc2)[nH]1 [Compound 310] | 1490 | 1920 | 6.5 | 0.033 | 0.0104 | – | – | – | – | –
14 | CCC(=O)CCCCC[C@H](NC(=O)C1(N)CC2(CN(C)C2)C1)c1ncc(-c2cc3ccccc3nc2OC)[nH]1 [Compound 276] | 1560 | 4780 | 5 | 0.00156 | 0.00157 | – | – | – | – | –
15 | CCC(=O)CCCCC[C@H](NC(=O)CC1CC2(C1)CN(C(C)=O)C2)c1ncc(-c2ccccc2)[nH]1 [Compound 300, (S)-2-(2-acetyl-2-azaspiro[3.3]heptan-6-yl)-N-(7-oxo-1-(5-phenyl-1H-imidazol-2-yl)nonyl)acetamide] | 9210 | 10200 | 11.1 | 0.199 | 0.0387 | – | – | – | – | –
16 | CCC(=O)CCCCC[C@H](NC(=O)[C@H]1CC12CCN(C)CC2)c1ncc(-c2cnc3c(c2)ncn3C)[nH]1 [Compound 256] | 23700 | > 40000 | 1.1 | 0.0746 | 0.0579 | – | – | – | – | –
